Experimental data reported in PubChem BioAssay AID602464 (Sanford-Burnham Center for Chemical Genomics, 2012).
Activity calls are given as the source filed them. Cut-off read from the data, not from the text of the source: active = IC50 below about 20 µM; inactive = the rest.

System: Gli-responsive luciferase reporter cells, SUFU pathway antagonism
Assay: Gli-SUFU pathway antagonists, dose response, cell-based, luciferase luminescence, uHTS hits (AID 602464)

Compound	IC50
Cc1ccc(Cl)cc1N1CCN(C(=O)CSc2nnc3n2C(C)(C)Cc2ccccc2-3)CC1	7.5 µM
Cc1c(C(C)C)c(=O)n(-c2ccc(S(=O)(=O)NC3CCCCC3)cc2)n1C	4.15 µM
Cc1ccc(OCCOC(=O)c2cc(S(=O)(=O)N3CCCCC3)ccc2N2CCOCC2)cc1	> 20 µM (inactive)
C[n+]1c2n(c3ccccc31)N=C(c1ccc(-c3ccccc3)cc1)CS2	1.32 µM
COc1cc(NS(=O)(=O)c2ccc(C)cc2C)cc(OC)c1OC	6.71 µM
CC[N+]1=C(C)C(C)(C)c2cc(C)ccc21	2.06 µM
CCOC(=O)C1CCCN(S(=O)(=O)c2ccc(S(=O)(=O)N(CC)CC)cc2)C1 (stereo unspecified)	3.29 µM
COc1cccc(/C=C/c2ccncc2)c1OC	8.95 µM
CC(=O)N1c2ccc(S(=O)(=O)N3CCC(C(=O)N4CCCCC4)CC3)cc2CC1C (stereo unspecified)	16.9 µM
CCn1cc[n+](C)c1P(c1ccccc1)c1ccccc1	8.57 µM
Cc1ccc(-c2c[n+](Cc3ccc(Cl)c(Cl)c3)c3n2CCC3)cc1	2.79 µM
COC(=O)C1=C(c2cc3ccccc3o2)C[C@@H]2CC[C@H]1N2C(=O)N1CCC(C)CC1	16.3 µM
Cc1ccsc1CNc1ncnc2ccc(-c3c(C)noc3C)cc12	4.5 µM
COc1ccc(CC(=O)Nc2cccc(S(=O)(=O)N3CCCCCC3)c2)cc1OC	7.98 µM
COc1cc(C(=O)NC2CCN(C)CC2)ccc1Nc1ncc2c(n1)N(C1CCCCC1)CCC(=O)N2C	1.6 µM
CC(C)CC(NC(=O)CCCNC(=O)CCC(=O)OC1O[C@H]2OC3(C)CC[C@H]4[C@H](C)CCC(C1C)C24OO3)C(=O)O (stereo partly specified)	0.619 µM
O=C(Cn1cnc2ccccc21)Nc1cccc(S(=O)(=O)N2CCCC2)c1	9.03 µM
Nc1ccc(Br)cc1-c1nc2ccccc2[nH]c1=O	0.771 µM
Cc1c(CCOC(=O)C23CC4CC(CC(C)(C4)C2)C3)sc[n+]1Cc1ccccc1	> 20 µM (inactive)
Cc1ccc2c(c1)c(C)cc[n+]2Cc1ccccc1	8.76 µM
CC(C)C(=O)NC(=S)/C=C1/N(C)c2ccccc2C1(C)C	4.76 µM
CCc1ccc(CN(C)C(=O)c2cc(COc3cccc4cnccc34)on2)cc1	5.85 µM

Compound	IC50
O=C(NC(c1cccnc1)C(F)(F)F)c1cc(COc2ccc3c(c2)CCCC3)on1 (stereo unspecified)	10.6 µM
C=CCn1c(O)c(N=NC(=S)Nc2cccc(C)c2)c2ccccc21	8.58 µM
CN1/C(=C\C(=O)COC(=O)CNC(=O)c2ccc3ccccc3c2)C(C)(C)c2ccccc21	9.73 µM
CC(=O)c1cn(CCOc2ccccc2C)c2ccccc12	8.58 µM
Clc1ccc(-c2cn(-c3ccc(Cl)cc3)c3[n+]2CCCCC3)cc1	6.44 µM
CCn1c(/C=C/Nc2ccccc2)[n+](CC)c2ccc(Cl)cc21	18.1 µM
CC(=O)Nc1ccc(S(=O)(=O)N(Cc2ccccc2)C(C)C)cc1	8.29 µM
CCCCCCCOc1ccc(OC(=O)c2ccncc2)cc1	0.954 µM
CC(C)(C)C1CCC(OC(=O)C[N+]2(C)CCCCC2)CC1 (stereo unspecified)	> 20 µM (inactive)
CN(Cc1nccs1)C(=O)c1cc(COc2cccc3cnccc23)on1	12 µM
Cc1nnsc1C(=O)Nc1ccc(S(=O)(=O)N2CCC(C)CC2)cc1	> 20 µM (inactive)
CCCCc1ccc(NC(=O)C(=O)NCCN2CCN(Cc3ccc([N+](=O)[O-])cc3)CC2)cc1	8.33 µM
CC(C)(C)c1ccc(C(=O)NC(=S)Nc2ccc(N3CCOCC3)cc2)cc1	9.13 µM
c1ccc2c(c1)OCC(CNc1ncnc3sccc13)O2 (stereo unspecified)	0.887 µM
Clc1ccc(-c2c[n+](Cc3ccc(Cl)cc3Cl)c3n2CCCCC3)cc1	5.31 µM
c1ccc(Cn2c(-c3ccccc3)c[n+]3c2SCCC3)cc1	6.59 µM
O=C(c1cc2sccc2n1Cc1ccccc1)N1CCN(c2nc3ccccc3s2)CC1	4.67 µM
Brc1ccc(-c2c[n+]3c(n2-c2ccccc2)SCC3)cc1	6.98 µM
C[N+]1=C(/C=C/Nc2ccccc2)C(C)(C)c2ccccc21	5.37 µM
O=C(Cn1cc(C(=O)c2ccco2)c2ccccc21)Nc1ccccc1F	4.27 µM
CCCCCCn1c(=O)c(C(=O)Nc2cnccn2)c(O)c2ccccc21	9.19 µM
Cc1nn(Cc2noc(C(=O)NC3CCC(C)CC3)n2)c(C)c1Br (stereo unspecified)	8.59 µM

Compound	IC50
Cc1nc2ccccc2n1Cc1ccc(Br)cc1	4.73 µM
Cc1cccc(C)c1NC(=S)N(CCN1CCCCCC1)Cc1ccco1	> 20 µM (inactive)
CC(=O)Nc1cccc(OCC(=O)/C=C2\N(C)c3ccccc3C2(C)C)c1	4.73 µM
CC(C)(C)c1ccc(CN2C3=NCCCN3c3ccccc32)cc1	3.83 µM
C=CCOc1nc2c(c(=O)n(C)c(=O)n2C)n1Cc1ccc(Cl)cc1Cl	10.3 µM
COc1ccc(-c2nn(-c3ccccc3)cc2/C=N/NC(=O)c2ccc(Br)o2)cc1	5.42 µM
O=c1c2ccccc2nc2n1C(CSCc1cccc(C(F)(F)F)c1)CS2 (stereo unspecified)	3.92 µM
CC1CCN(c2c(NCc3ccc(C(=O)N4c5ccccc5CC4C)cc3)c(=O)c2=O)CC1 (stereo unspecified)	5.18 µM
Cc1ccc2c(c1)S/C(=C/c1ccc[n+](C)c1)N2CCO	15.2 µM
O=C(Nc1cc(N2CCCCC2)ncn1)c1ccccc1	0.294 µM
Cc1cc(C)nc(/N=C(\N)Nc2ccccc2-c2ccccc2)n1	12.8 µM
O=C(c1cc(COc2cccc3cnccc23)on1)N1CCCC(CCCO)C1 (stereo unspecified)	1.53 µM
CCOC(=O)N1CCN(C(=O)c2ccc(CSc3ccc(Cl)cc3)cc2)CC1	10.8 µM
N=c1c(-c2nc3ccccc3[nH]2)cc(C(=O)c2ccco2)nn1-c1ccccc1	> 20 µM (inactive)
Cc1csc2ncnc(NCCc3ccccn3)c12	7.09 µM
CCOC(=O)c1c(NC(=O)COc2cccc3c2CCN(C)C3=O)sc2c1CCC2	8.42 µM
O=C(Nc1cccc(C(F)(F)F)c1)C1CCN(S(=O)(=O)c2ccc(N3CCCC3=O)cc2)CC1	5.45 µM
COc1ccc(CN(C)Cc2nc(Cc3cccc(F)c3)no2)c2cccnc12	5.96 µM
CC1C(OC(=O)CCC(=O)NC(C)(C)CO)O[C@H]2OC3(C)CC[C@H]4[C@H](C)CCC1C24OO3 (stereo partly specified)	0.368 µM
O=C(C[n+]1cc(-c2ccccc2)n2c1CCCCC2)c1ccc(Cl)cc1	> 20 µM (inactive)
CC1CCCCC1NS(=O)(=O)c1ccc(S(=O)(=O)NCc2ccncc2)cc1 (stereo unspecified)	5.58 µM
COCCNC(=O)CSCc1nc(-c2ccc(SC)cc2)oc1C	8.46 µM

Compound	IC50
NC(=O)c1c(-c2ccc(Cl)cc2Cl)csc1NC(=O)Cc1ccccc1	7.97 µM
CCN(CC)C(=O)c1ccc(S(=O)(=O)N2CCC(c3nc4ccccc4s3)CC2)cc1	8.85 µM
CCOc1ccc2[nH]c3c(N4CCN(C(=O)c5ccco5)CC4)ncnc3c2c1	7.07 µM
CCOC(=O)N1CCN(C(=O)c2cc(COc3ccc4ncccc4c3)on2)CC1	6.71 µM
O=C(C[C@@H]1C/C=C\C[C@H](NC(=O)OCC2c3ccccc3-c3ccccc32)C(=O)OC[C@H]2CCCN2C1=O)N[C@H](CO)Cc1ccccc1	6.71 µM
C=CCNc1nc2c(c(=O)n(C)c(=O)n2C)n1Cc1ccc(F)cc1	6.15 µM
CCc1nc(N)nc(N)c1-c1ccc(N(C)Cc2ccccc2)c([N+](=O)[O-])c1	1.57 µM
O=C(N[C@@H]1C/C=C\C[C@@H](CC(=O)N(CCO)Cc2ccccc2)C(=O)NCCOC1=O)OCC1c2ccccc2-c2ccccc21	12.7 µM
Cc1sc2ncnc(NCC(O)c3ccc([N+](=O)[O-])cc3)c2c1C (stereo unspecified)	4.75 µM
CC(C)C[C@H]1CN=C(N(C)C)N1CCCCc1ccccc1	7.93 µM
COc1ccccc1CN(Cc1nc2ccccc2c(=O)[nH]1)S(=O)(=O)c1ccc(C)cc1	> 20 µM (inactive)
CC1CN(S(=O)(=O)c2ccc(C(=O)Nc3nc(-c4cc5ccccc5o4)cs3)cc2)CC(C)O1 (stereo unspecified)	1.26 µM
CCCCCCCN1C2=NCCCN2c2ccccc21	11.4 µM
CCC(C(=O)NCCC(C)C)n1ccc2cc(S(=O)(=O)N3CCCCC3)ccc21 (stereo unspecified)	8.88 µM
COc1cccc2nc3c(C(=O)NCCN(C)C)cccc3cc12	3.02 µM
COc1ccc(NS(=O)(=O)c2ccc(N3CCN(CCO)CC3)c([N+](=O)[O-])c2)cc1	8.77 µM
Cc1sc2ncnc(NCc3cccs3)c2c1C	8.05 µM
COc1ccc(NC(=S)N2CCC(Cc3ccccc3)CC2)cc1	16.6 µM
O=C(NCCc1cccc(Cl)c1)c1ccc(OC2CCN(Cc3ccccn3)CC2)cc1	7.72 µM
CC1CCC(NC(=O)c2cccc(S(=O)(=O)N3CCN(c4ccccc4)CC3)c2)CC1 (stereo unspecified)	9.93 µM
CCCC(C)C(=O)Nc1nc(C)c(-c2csc(Nc3ccc(Cl)cc3)n2)s1 (stereo unspecified)	6.48 µM
CNS(=O)(=O)c1cccc(C(=O)OCC(=O)c2cc(C)n(CC3CCCO3)c2C)c1 (stereo unspecified)	0.735 µM

Compound	IC50
N=c1c2c(n(Cc3ccc(F)cc3)c3c1CCC3)CCCC2	3.82 µM
Cc1nn(C)c(C(=O)NCc2ccc(Cl)cc2)c1Cl	8.1 µM
CC(C)(C)[C@H]1COC(=O)[C@H](NC(=O)OCC2c3ccccc3-c3ccccc32)C/C=C\C[C@@H](CC(=O)N[C@@H](CO)Cc2ccccc2)C(=O)N1	11.9 µM
O=C(N[C@@H]1C/C=C\C[C@@H](CC(=O)N(CCO)Cc2ccccc2)C(=O)N[C@@H](c2ccccc2)COC1=O)OCC1c2ccccc2-c2ccccc21	11.9 µM
Cc1cc(/C=N/n2cnnc2)c(C)n1-c1ccc(OCc2ccccc2F)cc1	4.28 µM
CCCCSc1nc2sc3c(c2c(=O)n1-c1ccc(C)cc1)CCN(C)C3	17.9 µM
COc1ccccc1NS(=O)(=O)c1cccc(C(=O)NC2CCN(Cc3ccccc3)CC2)c1	> 20 µM (inactive)
Cc1cc(C)c[n+](C(C)C(=O)c2ccc(-c3ccccc3)cc2)c1 (stereo unspecified)	5.92 µM
FC(F)(F)c1ccc(N2CCN(c3cc(-c4ccccc4)nc4ncnn34)CC2)nc1	3.6 µM
CCCCCCCNC1=CC(=O)CC(c2ccccc2)C1 (stereo unspecified)	8.04 µM
CCN(CC)S(=O)(=O)c1ccc(S(=O)(=O)Nc2c(C)nn(C)c2C)cc1	6.15 µM
CCC(C)CCN1C(N(C)C)=NC[C@@H]1CC(C)C (stereo partly specified)	7.98 µM
COc1cc(C(=O)NC2CCN(C)CC2)ccc1Nc1ncc2c(n1)N(CCc1ccccc1)CCC(=O)N2C	4.62 µM
Cc1ccc(NC(=O)COc2ccccc2C(N)=O)cc1S(=O)(=O)N1CCCCCC1	12.3 µM
CCNc1nc(CN2CCCCC2)nc2scc(-c3ccccc3)c12	5.95 µM
O=C(c1ccc(C(F)(F)F)cc1)C1CCCN(Cc2ccncc2)C1 (stereo unspecified)	5.26 µM
COc1ccc(-c2c(C#N)c(N)nc3c2CCc2ccccc2-3)cc1OC	6.7 µM
COc1ccc(-c2noc(CCCCC(=O)N3CCN(c4cc(C)ccc4C)CC3)n2)cc1	4 µM
